Measurements published in ChEMBL document CHEMBL4024759, “One-Bead-Two-Compound Thioether Bridged Macrocyclic γ-AApeptide Screening Library against EphA2” (J Med Chem, 2017).

Legend:
Homo sapiens = organism: Homo sapiens; test: Selectivity ratio of Kd for GST (unknown origin) to Kd for recombinant human GST-tagged EphA2 cytoplasmic domain (560 to 976 residues) expressed in baculovirus expression system
[1] = molecular target: T1, NF-kappa-B inhibitor alpha (Homo sapiens, UniProt P25963); test: Binding affinity to NFKBIA (unknown origin)
T1 sequence (P25963 whole entry): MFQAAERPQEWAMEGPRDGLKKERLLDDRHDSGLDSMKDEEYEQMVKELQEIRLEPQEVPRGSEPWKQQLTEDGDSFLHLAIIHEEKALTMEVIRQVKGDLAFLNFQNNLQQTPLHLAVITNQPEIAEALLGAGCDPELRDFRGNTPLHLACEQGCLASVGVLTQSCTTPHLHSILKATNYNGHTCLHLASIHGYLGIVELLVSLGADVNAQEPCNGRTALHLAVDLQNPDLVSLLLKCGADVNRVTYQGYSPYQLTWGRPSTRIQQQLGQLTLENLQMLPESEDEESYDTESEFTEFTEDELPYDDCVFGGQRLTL

[2] = molecular target: RAC-alpha serine/threonine-protein kinase (Homo sapiens, UniProt P31749); test: Binding affinity to AKT1 (unknown origin)
Sequence of RAC-alpha serine/threonine-protein kinase (P31749 whole entry, the tested form may be a part): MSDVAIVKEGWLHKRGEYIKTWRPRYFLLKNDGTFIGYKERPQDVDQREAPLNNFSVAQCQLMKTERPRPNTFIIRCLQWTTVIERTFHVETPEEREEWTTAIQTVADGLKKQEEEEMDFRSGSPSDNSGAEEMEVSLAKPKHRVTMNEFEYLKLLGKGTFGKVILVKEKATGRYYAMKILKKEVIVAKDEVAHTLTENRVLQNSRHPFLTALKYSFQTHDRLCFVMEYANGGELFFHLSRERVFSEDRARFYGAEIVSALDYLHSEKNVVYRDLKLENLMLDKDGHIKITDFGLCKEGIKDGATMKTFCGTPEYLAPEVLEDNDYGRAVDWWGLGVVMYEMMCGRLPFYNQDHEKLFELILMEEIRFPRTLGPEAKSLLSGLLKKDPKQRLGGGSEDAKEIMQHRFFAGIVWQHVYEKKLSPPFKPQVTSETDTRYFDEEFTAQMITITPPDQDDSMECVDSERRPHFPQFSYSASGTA

Ephrin type-A receptor 2 = Ephrin type-A receptor 2 (Homo sapiens, UniProt P29317); test: Binding affinity to recombinant human GST-tagged EphA2 cytoplasmic domain (560 to 976 residues) expressed in baculovirus expression system by fluorescence polarization assay
Sequence of Ephrin type-A receptor 2 (P29317 whole entry, the tested form may be a part): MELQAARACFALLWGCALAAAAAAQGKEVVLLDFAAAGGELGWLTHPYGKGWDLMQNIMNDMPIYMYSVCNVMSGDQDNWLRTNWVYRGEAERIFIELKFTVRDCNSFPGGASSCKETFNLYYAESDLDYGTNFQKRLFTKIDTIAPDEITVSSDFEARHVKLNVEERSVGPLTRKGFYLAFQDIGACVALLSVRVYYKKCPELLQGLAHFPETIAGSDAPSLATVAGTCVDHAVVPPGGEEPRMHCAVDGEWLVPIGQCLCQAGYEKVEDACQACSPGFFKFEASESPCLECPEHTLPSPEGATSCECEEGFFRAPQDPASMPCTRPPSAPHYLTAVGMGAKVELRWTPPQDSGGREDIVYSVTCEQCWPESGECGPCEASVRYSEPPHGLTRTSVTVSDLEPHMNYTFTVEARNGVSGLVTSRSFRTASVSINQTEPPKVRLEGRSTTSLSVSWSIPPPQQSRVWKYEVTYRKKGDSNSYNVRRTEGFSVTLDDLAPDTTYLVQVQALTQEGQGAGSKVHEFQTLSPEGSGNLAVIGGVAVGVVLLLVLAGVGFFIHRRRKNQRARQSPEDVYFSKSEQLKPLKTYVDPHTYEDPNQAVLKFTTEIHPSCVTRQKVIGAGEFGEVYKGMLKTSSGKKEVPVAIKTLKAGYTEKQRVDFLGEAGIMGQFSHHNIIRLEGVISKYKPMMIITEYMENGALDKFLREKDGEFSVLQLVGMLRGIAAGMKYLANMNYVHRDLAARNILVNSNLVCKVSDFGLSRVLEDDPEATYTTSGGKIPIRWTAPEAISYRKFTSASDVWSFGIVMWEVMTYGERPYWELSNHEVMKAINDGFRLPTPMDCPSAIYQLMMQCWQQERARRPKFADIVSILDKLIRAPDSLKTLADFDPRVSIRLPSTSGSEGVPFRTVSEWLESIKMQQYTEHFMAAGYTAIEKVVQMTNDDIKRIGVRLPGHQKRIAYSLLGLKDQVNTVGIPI

[3] = Binding affinity to GST (unknown origin) by fluorescence polarization assay; parameters: species or system Homo sapiens
C13 [4] = test: Antimigratory activity in human C13 cells after 24 hrs by scratch-wound motility assay; assay type: functional, cell-based
C13 [5] = test: Antimigratory activity in human C13 cells assessed as delay in wound closure at 15 uM after 24 hrs by scratch-wound motility assay; assay type: functional
C13 [6] = test: Antimigratory activity in human C13 cells at 10 uM by scratch-wound motility assay; assay type: functional, cell-based; conditions: TDE = time-dependent effect

Compound | Selectivity ratio (Homo sapiens) | Kd [1] | Kd [2] | Kd (Ephrin type-A receptor 2) | Kd [3] | Activity (C13 [4]) | Activity (C13 [5]) | Activity (C13 [6])
NC(=O)[C@H](CCCCNC(=S)Nc1ccc(-c2c3ccc(=O)cc-3oc3cc(O)ccc23)c(C(=O)O)c1)NC(=O)CN1C[C@H](Cc2ccccc2)NC(=O)CN(C(=O)CCC(=O)O)C[C@H](CCC(=O)O)NC(=O)CN(C(=O)Cc2ccc3c(c2)OCO3)C[C@H](CCC(=O)O)NC(=O)CN(C(=O)CCC2CCCCC2)C[C@H](Cc2ccccc2)NC(=O)c2ccc(cc2)CSCCC1=O | 170 | 741 nM | 3620 nM | 81 nM | 14200 nM | – | – | –
NC(=O)CN1C[C@H](Cc2ccccc2)NC(=O)CN(C(=O)CCC(=O)O)C[C@H](CCC(=O)O)NC(=O)CN(C(=O)Cc2ccc3c(c2)OCO3)C[C@H](CCC(=O)O)NC(=O)CN(C(=O)CCC2CCCCC2)C[C@H](Cc2ccccc2)NC(=O)c2ccc(cc2)CSCCC1=O | – | – | – | – | – | Dose-dependent effect | 70% | Tde
